Broadly, the EC50 is the concentration that produces a half-maximal response.

For 17 compounds, EC50 results are on record in ChEMBL document CHEMBL1909498, “Secoiridoid glucosides and related compounds from Syringa reticulata and their antioxidant activities” (Bioorg Med Chem Lett, 2011).

Assay [1] in a line: Antioxidant activity assessed as superoxide radical scavenging activity after 20 mins by spectrophotometric analysis. The format is functional.
Assay [2] concerns Radical scavenging activity. Description: Antioxidant activity assessed as DPPH radical scavenging activity after 30 mins by spectrophotometric analysis. Format: functional. For orientation: The DPPH test is a chemical assay of radical scavenging.

As for `COc1cc([C@H]2OC[C@H]3[C@@H]2CO[C@@H]3c2cc(OC)c(O[C@@H]3O[C@H](CO)[C@@H](O)[C@H](O)[C@H]3O)c(OC)c2)cc(OC)c1O`, the EC50 in assay [1] and in assay [2] was > 100 µM each time.

`COc1cc([C@H]2OC[C@H]3[C@@H]2CO[C@@H]3c2ccc(O[C@@H]3O[C@H](CO)[C@@H](O)[C@H](O)[C@H]3O)c(OC)c2)ccc1O`: the EC50 in assay [1] is 18.6 µM; in assay [2], > 100 µM.

In the case of `OC[C@H]1O[C@@H](OCCc2ccc(O)c(O)c2)[C@H](O)[C@@H](O)[C@@H]1O`, the EC50 in assay [1] was determined as 4.97 µM; in assay [2] it was 33 µM.

As for `COc1cc([C@H]2c3cc(O[C@@H]4O[C@H](CO)[C@@H](O)[C@H](O)[C@H]4O)c(OC)cc3C[C@@](O)(CO)[C@@H]2CO)ccc1O`, the values for the EC50 in assay [1] and in assay [2] were 39.3 µM and > 100 µM, respectively.

On to `COc1cc(C[C@]2(O)CO[C@@H](c3ccc(O[C@H]4O[C@@H](CO)[C@H](O)[C@@H](O)[C@@H]4O)c(OC)c3)[C@@H]2CO)ccc1O`, for which the half-maximal effective concentration (EC50) in assay [1] and in assay [2] was > 100 µM in each case.

`COc1cc([C@@H]2OC[C@@](O)(Cc3ccc(O[C@@H]4O[C@H](CO)[C@@H](O)[C@H](O)[C@H]4O)c(OC)c3)[C@H]2CO)ccc1O`: the values for the EC50 in assay [1] and in assay [2] were 25.3 µM and > 100 µM, respectively.

On to `COc1cc(C[C@@H]2CO[C@@H](c3cc(OC)c(O)c(OC)c3)[C@@H]2CO)ccc1O[C@@H]1O[C@H](CO)[C@@H](O)[C@H](O)[C@H]1O` [ARMANDISIDE], for which the values for the EC50 in assay [1] and in assay [2] were 10.6 µM and > 100 µM, respectively.

Take `COc1cc(/C=C/C=O)ccc1O[C@@H]1O[C@H](CO)[C@@H](O)[C@H](O)[C@H]1O` [CONIFERYALDEHYDE GLUCOSIDE]: the EC50 in assay [1] and in assay [2] was > 100 µM throughout.

Consider `COc1cc(/C=C/CO[C@H]2O[C@@H](CO)[C@H](O)[C@@H](O)[C@@H]2O)cc(OC)c1O[C@@H]1O[C@H](CO)[C@@H](O)[C@H](O)[C@H]1O` [ISOSYRINGINOSIDE], for which the values for the EC50 in assay [1] and in assay [2] were 14.1 µM and > 100 µM, respectively.

Consider `C/C=C1/[C@H](O[C@@H]2O[C@H](CO)[C@@H](O)[C@H](O)[C@H]2O)OC=C(C(=O)OC)[C@H]1CC(=O)OC[C@H]1O[C@@H](O[C@@H]2OC=C(C(=O)OC)[C@@H](CC(=O)OCCc3ccc(O)c(O)c3)/C2=C\C)[C@H](O)[C@@H](O)[C@@H]1O` [JASPOLYOSIDE], for which the EC50 in assay [1] is 4.97 µM; in assay [2], > 100 µM.

On to `C/C=C1/[C@H](O[C@@H]2O[C@H](CO)[C@@H](O)[C@H](O)[C@H]2O)OC=C(C(=O)OC)[C@H]1CC(=O)OCCc1ccc(O)cc1` [LIGSTROSIDE], for which the EC50 in assay [1] and in assay [2] was > 100 µM throughout.

Regarding `COc1cc([C@H]2OC[C@H]3[C@@H]2CO[C@@H]3c2cc(OC)c(O[C@@H]3O[C@H](CO)[C@@H](O)[C@H](O)[C@H]3O)c(OC)c2)cc(OC)c1O[C@H]1O[C@@H](CO)[C@H](O)[C@@H](O)[C@@H]1O` [LIRIODENDRTACHIOSIDE], the EC50 in assay [1] is 16 µM; in assay [2], > 100 µM.

Take `C/C=C1/[C@H](O[C@@H]2O[C@H](CO)[C@@H](O)[C@H](O)[C@H]2O)OC=C(C(=O)OC)[C@H]1CC(=O)OCCc1ccc(O)c(O)c1` [OLEUROPEIN]: the EC50 in assay [1] was determined as 2.57 µM; in assay [2] it was 20.8 µM.

On to `C/C=C1/[C@H](O[C@@H]2O[C@H](CO)[C@@H](O)[C@H](O)[C@H]2O)OC=C(C(=O)OC)[C@H]1CC(=O)OC[C@H]1O[C@@H](Oc2c(OC)cc(/C=C/CO)cc2OC)[C@H](O)[C@@H](O)[C@@H]1O` [RETICULOSIDE], for which the EC50 in assay [1] is 64.1 µM; in assay [2], > 100 µM.

With `OC[C@H]1O[C@@H](OCCc2ccc(O)cc2)[C@H](O)[C@@H](O)[C@@H]1O` [SALIDROSIDE], the EC50 in assay [1] and in assay [2] was > 100 µM throughout.

As to `COc1cc(/C=C/C=O)cc(OC)c1O[C@@H]1O[C@H](CO)[C@@H](O)[C@H](O)[C@H]1O` [SINAPALDEHYDE GLUCOSIDE], the EC50 in assay [1] and in assay [2] was > 100 µM each time.

On to `COc1cc(/C=C/CO)cc(OC)c1O[C@@H]1O[C@H](CO)[C@@H](O)[C@H](O)[C@H]1O` [SYRINGIN], for which the values for the EC50 in assay [1] and in assay [2] were 70.9 µM and > 100 µM, respectively.
